According to patent publication US20130136766A1, “EFFECTIVE FRACTION FROM THE FRUITING BODIES OF GANODERMA LUCIDUM, EXTRACTION METHOD, USE AND PREPARATION THEREOF” (Shanghai University of Traditional Chinese Medicine, priority 2010, published 2013):

Test system: STZ-induced type 2 diabetic model rats
Assay: Drug potency on STZ-induced type 2 diabetic model rats (fasting blood glucose)
Type: in vivo
Method: The extract from Example 13 was trialed for its drug potency on STZ-induced type 2 diabetic model rats in Center for Drug Safety Evaluation, Shanghai University of Traditional Chinese Medicine.
FYGL was orally administered for various groups as: type 2 diabetes control group with saline 20 mL/kg; type 2 diabetes group with low dose of FYGL 50 mg/kg; type 2 diabetes group with high dose of FYGL 150 mg/kg; metformin group with metformin 200 mg/kg; rosiglitazone group with rosiglitazone 3 mg/kg. Numbers of rats in each group are 10.
The symbol # indicates significant difference of the fasting blood glucose level with p<0.05 and ## indicates very significant difference with p<0.01, referred to that of type 2 diabetes control group.

Compound | fasting blood glucose (10 days, metformin 200 mg/kg) | fasting blood glucose (20 days, metformin 200 mg/kg) | fasting blood glucose (30 days, metformin 200 mg/kg) | fasting blood glucose (10 days, rosiglitazone 3 mg/kg) | fasting blood glucose (20 days, rosiglitazone 3 mg/kg) | fasting blood glucose (30 days, rosiglitazone 3 mg/kg)
CN(C)C(=N)N=C(N)N [Metformin, metformin] | 14 ± 4(#) mM | 18 ± 5(#) mM | 13 ± 2 (##) mM | – | – | –
CN(CCOc1ccc(CC2SC(=O)NC2=O)cc1)c1ccccn1 (stereo not drawn) [rosiglitazone] | – | – | – | 14 ± 5(#) mM | 14 ± 4(#) mM | 12 ± 3 (##) mM
